Results reported in patent US20120190752A1, “EXO-S-MECAMYLAMINE METHOD, USE, AND COMPOUND FOR TREATMENT” (Targacept Inc., priority 2009, published 2012).

System: subjects with major depressive disorder (MDD) who were inadequate responders to citalopram
Assay: CGI-SI (Clinical Global Impression-Severity of Illness), Phase 2b add-on trial
Assay type: in vivo, human
Source text: The Clinical Global Impression rating scales are commonly used measures of symptom severity, treatment response and the efficacy of treatments in treatment studies of patients with mental disorders (Guy, W., 1976). The Clinical Global Impression—Severity scale (CGI-S) is a 7-point scale that requires the clinician to rate the severity of the patient's illness at the time of assessment, relative to the clinician's past experience with patients who have the same diagnosis. Considering total clinical experience, a patient is assessed on severity of mental illness at the time of rating. In more detail, a multi-center double-blind, randomized, placebo-controlled, parallel group, flexible dose titration study of TC-5214 as adjunctive therapy in subjects with major depressive disorder (MDD) who were inadequate responders to citalopram was conducted in centers in the US and India. The study consisted of a screening period, baseline/washout period, open-label phase, double-blind phase, and a follow-up visit. Subject participation in the study could continue for up to 16 weeks of treatment. Following a washout period of up to 28 days for other antidepressants, subjects with MDD and a MADRS total score >/=28 and a Clinical Global Impression-Severity (CGI-S) score >/=4 were enrolled on Day 1 into an open-label citalopram-only phase of the study. This phase lasted 8 weeks, with citalopram (CIT) dose increased from a once-daily dose of 20 mg (Day 1 through Week 4) to 40 mg (Week 4 through Week 8). A total of 579 subjects entered the open-label citalopram phase. At Week 8, subjects who tolerated 40 mg CIT, but whose MADRS score was reduced <50% from baseline and no lower than 17, and CGI-S≧4, were considered inadequate responders. These subjects (n=270) were randomized in a double-blind fashion to receive either placebo or TC-5214-23 as add-on therapy to continued CIT. The double-blind phase of the study also lasted 8 weeks (Week 8 to Week 16). Study drug, TC-5214-23 or placebo, was started at 2 mg daily (1 mg twice per day [BID] dosing), added on to continuing CIT (40 mg PO qd). After 2 weeks of treatment, the dose of TC-5214 could be increased to 4 mg (2 mg BID) or continued unchanged, with up-titration based upon good tolerability and inadequate therapeutic response. After a further 2 weeks, the dose of TC-5214 could be increased again to 8 mg (4 mg BID) if judged appropriate by the investigator, based upon good tolerability and inadequate therapeutic response. At any time during the double-blind phase of the study, placebo or TC-5214-23 could be reduced to the previous dose level following the emergence of unacceptable adverse events (AEs). […] At this follow-up, any signs or symptoms of relapse were evaluated. If a subject was prematurely discontinued from the study between Week 8 and Week 16 for any reason, the investigator was to make every effort to perform all evaluations as per protocol, assuming the subject had reached the end of the double-blind add-on treatment phase. These evaluations were to be made as soon as possible and within 2 weeks of discontinuation. […] There was no meaningful difference in results as a function of age, gender, site, or smoking status. With regard to efficacy endpoints, the following tables present efficacy used in the ITT (Intent-to-Treat) and PP (Per Protocol) populations unless otherwise specific. The primary inference was based upon Week 16 visit using the ITT population. Change from baseline was obtained by subtracting the baseline values from the individual on-treatment values. Change from Week 16 was obtained by subtracting the Week 16 values from the individual follow-up visit (Week 18/19) values. If either the baseline or Week 16 or on-treatment or follow-up value was missing, the change from baseline or Week 16 value was also set to missing. […]

[1] = ITT, Double Blind Week 18 LOCF (Follow-up), change from Week 16
[2] = PP, Double Blind Week 16 LOCF (change from Week 8)
[3] = PP, Double Blind Week 18 LOCF (Follow-up), change from Week 16

SMILES: CNC1(C)C2CCC(C2)C1(C)C (stereo in doubt) [TC-5214, (S)—N,2,3,3-tetramethylnorbornan-2-amine]
- CGI-SI score change from baseline compared with placebo (ITT and PP populations, result in words): statistically significant decreases (improvements)
- CGI-SI Mean Difference between TC-5214 and Placebo (ITT, Double Blind Week 16 LOCF (change from Week 8)): 0.87
- CGI-SI Adjusted Mean change [1]: −0.05
- CGI-SI Mean Difference between TC-5214 and Placebo [1]: 0.01
- CGI-SI Difference vs Placebo + CIT (ITT, Week 8 to Week 16 LOCF): −0.87
- CGI-SI Adj. Mean change (ITT, change from Week 8 (double-blind baseline) to Week 16 LOCF, add-on to citalopram): −1.79
- CGI-SI Adjusted Mean change [2]: −2.00
- CGI-SI Mean Difference between TC-5214 and Placebo [2]: 0.92
- CGI-SI Adjusted Mean change [3]: −0.07
- CGI-SI Mean Difference between TC-5214 and Placebo [3]: 0.05
